The values that follow come from PMC6204823, “Synthesis of 3-aminocoumarin-N-benzylpyridinium conjugates with nanomolar inhibitory activity against acetylcholinesterase” (Beilstein Journal of Organic Chemistry, 2018).

Data set [1] deals with T1, Electrophorus electricus AChE (Electrophorus electricus, UniProt O42275).
T1 construct: purchased Sigma-Aldrich, USA Type VI-S
As to the kind of experiment: biochemical. Particulars: for inhibition at 1 µM: read-out: % Inhibition at concentration of 1 μM, 1 μM; for IC50: concentration producing 50% inhibition of enzyme activity, triplicate independent experiments. As to the method: The AChE inhibitory activity of the synthesized compounds was evaluated by Ellman’s method using Electrophorus electricus AChE; donepezil hydrochloride and tacrine were used as the reference compounds.
AChE (Electrophorus electricus, Type VI-S, lyophilized powder) was purchased from Sigma-Aldrich, USA. Acetylthiocholine, 5,5′-dithiobis(2-nitrobenzoic acid), sodium dihydrogen phosphate, disodium hydrogen phosphate, and sodium hydrogen carbonate were obtained from Fluka, Switzerland. AChE inhibitory activity was […]
USA) based on Ellman’s method with slight modifications. For each assay, 200 μL of the assay medium containing 100 μL of 0.1 M phosphate buffer (pH 8), 20 μL of 3.3 mM 5,5′-dithiobis(2-nitrobenzoic acid) in 0.1 M phosphate buffer (pH 7) containing 6 mM NaHCO3, 20 μL of the test compounds at different concentrations in methanol, and 40 μL of 0.15 unit/mL AChE in phosphate buffer (pH 8) were incubated at 37 °C for 20 min. Subsequently, 20 μL of 5 mM acetylthiocholine iodide in water was added, and the absorbance was measured at 412 nm every 20 s for 3 min. The rate of each reaction was calculated by Microplate Manager software.
The blank percentage of inhibition of the tested compounds was determined by comparing the rate of the sample to the blank. The IC50 value was determined by nonlinear regression of the log inhibitor concentration versus the percentage of inhibition using GraphPad Prism6. Donepezil hydrochloride and tacrine were applied as the reference compounds. All samples were assayed in triplicate.

Data set [2] can be described thus: Cytotoxicity against MRC-5 normal embryonic lung cell. It is filed as cell-based. Particulars: human, MRC-5 normal embryonic lung cells; concentration of 50 μg/mL. The text has this: For chlorine as a substituent, the activity followed the order of ortho > meta > para. […] For fluorine as a substituent, the activity also followed the order of ortho > meta ≈ para. […].

Each structure is given as a SMILES string. Some results are limits rather than exact numbers.

T1 sequence (O42275 24-633): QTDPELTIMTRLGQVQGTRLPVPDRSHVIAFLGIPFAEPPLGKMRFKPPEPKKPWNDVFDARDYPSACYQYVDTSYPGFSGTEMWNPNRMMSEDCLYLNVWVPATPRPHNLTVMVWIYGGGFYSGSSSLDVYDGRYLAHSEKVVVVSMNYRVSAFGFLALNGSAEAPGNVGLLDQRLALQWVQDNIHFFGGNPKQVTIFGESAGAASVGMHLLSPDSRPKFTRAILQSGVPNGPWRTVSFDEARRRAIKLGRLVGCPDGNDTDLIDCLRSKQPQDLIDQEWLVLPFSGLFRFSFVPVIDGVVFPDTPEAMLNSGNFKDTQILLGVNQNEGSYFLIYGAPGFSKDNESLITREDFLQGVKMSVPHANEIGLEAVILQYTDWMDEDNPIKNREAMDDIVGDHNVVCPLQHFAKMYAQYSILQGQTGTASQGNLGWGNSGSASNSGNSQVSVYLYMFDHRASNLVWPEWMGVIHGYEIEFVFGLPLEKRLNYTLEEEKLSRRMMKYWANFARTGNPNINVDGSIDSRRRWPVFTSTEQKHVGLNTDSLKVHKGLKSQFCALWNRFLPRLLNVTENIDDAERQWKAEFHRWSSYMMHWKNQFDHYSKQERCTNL

Regarding `Nc1cc2ccccc2oc1=O` [compound 3, 3-aminocoumarin], the inhibition at 1 µM in data set [1] stood at 12%.

Usually IC50 stands for the concentration that inhibits the measured activity by half. A low value points to higher potency. `O=C(Nc1cc2ccccc2oc1=O)c1cc[n+](Cc2ccccc2)cc1` [compound 4a] came in with an IC50 in data set [1] of 71.9 ± 3.4 nM. Take `O=C(Cc1ccncc1)Nc1cc2ccccc2oc1=O` [compound 5]: the inhibition at 1 µM in data set [1] was < 10%. With `O=C(Cc1cc[n+](Cc2ccccc2)cc1)Nc1cc2ccccc2oc1=O` [compound 5a], the inhibition at 1 µM in data set [1] is 10%. Turning to `COc1cc2cc(N)c(=O)oc2cc1OC` [compound 8], in data set [1], the inhibition at 1 µM turned out to be 5%. With `COc1cc2cc(NC(=O)c3ccncc3)c(=O)oc2cc1OC` [compound 9], the inhibition at 1 µM in data set [1] was < 10%. For the compound `COc1cc2cc(NC(=O)c3cc[n+](Cc4ccccc4)cc3)c(=O)oc2cc1OC` [compound 9a], in data set [1], the IC50 is 12.5 ± 0.71 nM. Still for that read-out and setting: then `COc1cc2cc(NC(=O)c3cc[n+](Cc4ccccc4Cl)cc3)c(=O)oc2cc1OC` [compound 9b], with 6.03 ± 0.18 nM; and `COc1cc2cc(NC(=O)c3cc[n+](Cc4cccc(Cl)c4)cc3)c(=O)oc2cc1OC` [compound 9c], with 11.5 ± 0.63 nM; and `COc1cc2cc(NC(=O)c3cc[n+](Cc4ccc(Cl)cc4)cc3)c(=O)oc2cc1OC` [compound 9d], with 293 ± 13.6 nM.

For `COc1cc2cc(NC(=O)c3cc[n+](Cc4ccccc4F)cc3)c(=O)oc2cc1OC` [compound 9e], the IC50 in data set [1] is 3.05 ± 0.28 nM. Same read-out and setting: then `COc1cc2cc(NC(=O)c3cc[n+](Cc4cccc(F)c4)cc3)c(=O)oc2cc1OC` [compound 9f], with 5.04 ± 0.26 nM; and `COc1cc2cc(NC(=O)c3cc[n+](Cc4ccc(F)cc4)cc3)c(=O)oc2cc1OC` [compound 9g], with 5.31 ± 0.38 nM.

For `COc1cc2cc(NC(=O)c3cc[n+](Cc4cccc(F)c4F)cc3)c(=O)oc2cc1OC.[Br-]` [compound 9h], the cytotoxicity at 50 μg/mL in data set [2] turned out to be 0%. For the same compound, in data set [1], the “fold lower IC50 than donepezil hydrochloride” value amounted to 35 fold, the “fold lower IC50 than tacrine” value amounted to 124 fold and the IC50 turned out to be 1.53 ± 0.01 nM. In the case of `COc1cc2cc(NC(=O)c3cc[n+](Cc4c(F)cccc4F)cc3)c(=O)oc2cc1OC` [compound 9i], in data set [1], 2.43 ± 0.18 nM corresponded to half-maximal inhibition (IC50). With `COc1cc2cc(NC(=O)Cc3ccncc3)c(=O)oc2cc1OC` [compound 10], in data set [1], the inhibition at 1 µM was < 10%. `COc1cc2cc(NC(=O)Cc3cc[n+](Cc4ccccc4)cc3)c(=O)oc2cc1OC` [compound 10a] registered an IC50 in data set [1] of 1087.7 ± 0.05 nM.
